Drawing on patent US8487103B2 (Roche Palo Alto LLC, priority 2009, dated 2013), this text covers IC50 for 28 compounds.

Structures are written as SMILES.

The target in this assay is T1, HCV polymerase (NS5B570n-Con1) (Hepatitis C virus genotype 1b, UniProt Q9WMX2).
T1 construct: contains a 21 amino acid deletion at the C-terminus relative to the full-length HCV polymerase; 6-histidine (N); made in house; host or cells: E. coli BL21(DE) pLysS, plasmid pET 17b
Briefly: HCV NS5B RNA Polymerase Activity. The class given is biochemical, HCV Con1 strain. Here is the method:
The enzymatic activity of HCV polymerase (NS5B570n-Con1) was measured as the incorporation of radiolabeled nucleotide monophosphates into acid insoluble RNA products. Unincorporated radiolabeled substrate was removed by filtration and scintillant was added to the washed and dried filter plate containing radiolabeled RNA product. The amount of RNA product generated by NS5B570-Con1 at the end of the reaction was directly proportional to the amount of light emitted by the scintillant.
The N-terminal 6-histidine tagged HCV polymerase, derived from HCV Con1 strain, genotype 1b (NS5B570n-Con1) contains a 21 amino acid deletion at the C-terminus relative to the full-length HCV polymerase and was purified from E. coli strain BL21(DE) pLysS. The construct, containing the coding sequence of HCV NS5B Con1 (GenBank accession number AJ242654) was inserted into the plasmid construct pET 17b, downstream of a T7 promoter expression cassette and transformed into E. coli. A single colony was grown overnight as a starter culture and later used inoculate 10 L of LB media supplemented with 100 μg/mL ampicillin at 37° C. Protein expression was induced by the addition of 0.25 mM isopropyl-β-D-thiogalactopyranoside (IPTG) when optical density at […] of the culture was between 0.6 and 0.8 and cells were harvested after 16 to 18 h at 30° C. NS5B570n-Con1 was purified to homogeneity using a three-step protocol including subsequent column chromatography on Ni-NTA, SP-Sepharose HP and Superdex 75 resins.
Each 50 μL enzymatic reaction contained 20 nM RNA template derived from the complementary sequence of the Internal Ribosome Entry Site (cIRES), 20 nM NS5B570n-Con1 enzyme, 0.5 μCi of tritiated UTP (Perkin Elmer catalog no. TRK-412; specific activity: 30 to 60 Ci/mmol; stock solution concentration from 7.5×10^−5 M to 20.6×10^−6 M), 1 μM each ATP, CTP, and GTP, 40 mM Tris-HCl pH 8.0, 40 mM NaCl, 4 mM DTT (dithiothreitol), 4 mM MgCl2, and 5 μl of compound serial diluted in DMSO. Reaction mixtures were assembled in 96-well filter plates (cat #MADVN0B, Millipore Co.) and incubated for 2 h at 30° C. Reactions were stopped by addition of 10% final (v/v) trichloroacetic acid and incubated for 40 min at 4° C. Reactions were filtered, washed with 8 reaction volumes of 10% (v/v) trichloroacetic acetic acid, 4 reaction volumes of 70% (v/v) ethanol, air dried, and 25 μl of scintillant (Microscint 20, Perkin-Elmer) was added to each reaction well.
The amount of light emitted from the scintillant was converted to counts per minute (CPM) on a Topcount® plate reader (Perkin-Elmer, Energy Range: Low, Efficiency Mode Normal, Count Time: 1 min, Background Subtract: none, Cross talk reduction: Off).
Data was analyzed in Excel® (Microsoft) and ActivityBase® (Idbs®). The reaction in the absence of enzyme was used to determine the background signal, which was subtracted from the enzymatic reactions. Positive control reactions were performed in the absence of compound, from which the background corrected activity was set as 100% polymerase activity. All data was expressed as a percentage of the positive control. The compound concentration at which the enzyme-catalyzed rate of RNA synthesis was reduced by 50% (IC50) was calculated by fitting equation (i) to the data where“Y”
[formula] corresponds to the relative enzyme activity (in %), “% Min” is the residual relative activity at saturating compound concentration, “% Max” is the relative maximum enzymatic activity, “X” corresponds to the compound concentration, and “S” is the Hill coefficient (or slope).
In general, IC50 refers to the concentration that gives 50% inhibition. Read a low IC50 as inhibition by little substance. Compound `COc1c(C(C)(C)C)cc(Br)c2ncc(-c3ccc(NS(C)(=O)=O)cc3)cc12` [Compound I-20] yielded an IC50 of 225 nM. That is a sub-micromolar value.
Turning to `COc1ccc(-c2cc(C(C)(C)C)cc3nc(-c4ccc(NS(C)(=O)=O)cc4Cl)cnc23)c(=O)[nH]1` [Compound I-9], the IC50 was 1 nM. This IC50 lies about 220-fold lower than the previous one.
With `COc1ccc(-c2cc(C(C)(C)C)cc3cc(-c4ccc(NS(C)(=O)=O)cc4)cnc23)c(=O)[nH]1` [Compound I-58], the midpoint of inhibition, the IC50, lay at 6 nM.
With `COc1c(C(C)(C)C)cc(-c2c[nH]c(=O)[nH]c2=O)c2ncc(-c3ccc(NS(C)(=O)=O)cc3)cc12` [Compound I-25, N-{4-[6-tert-Butyl-8-(2,4-dioxo-1,2,3,4-tetrahydro-pyrimidin-5-yl)-5-methoxy-quinolin-3-yl]-phenyl}-methanesulfonamide] the figure was 0.4 nM; with `CC(C)(C)c1cc(-c2ccc[nH]c2=O)c2ncc(-c3ccc(NS(C)(=O)=O)cc3F)nc2c1` [Compound I-8], 4 nM.
The value for `COc1c(C2(C(F)F)CC2)cc(-c2ccc(C)[nH]c2=O)c2ncc(-c3ccc(NS(C)(=O)=O)cc3)cc12` [Compound I-37, N-{4-[6-(1-Difluoromethyl-cyclopropyl)-5-methoxy-8-(6-methyl-2-oxo-1,2-dihydro-pyridin-3-yl)-quinolin-3-yl]-phenyl}-methanesulfonamide] was 9.9 nM.
`COc1c(C(C)(C)C)cc(-c2cc(F)c[nH]c2=O)c2ncc(-c3ccc(NS(C)(=O)=O)cc3)cc12` [Compound I-23] came in with a half-maximal inhibitory concentration (IC50) of 1 nM. Compared with the last compound, the IC50 is about 9.9-fold lower.
With `COc1ccc(-c2cc(C3(C(F)F)CC3)c(OC)c3cc(-c4ccc(NS(C)(=O)=O)cc4)cnc23)c(=O)[nH]1` [Compound I-38] the figure was 0.6 nM; with `Cc1nc2c(-c3ccc[nH]c3=O)cc(C(C)(C)C)cc2nc1-c1ccc(NS(C)(=O)=O)cc1` [Compound I-10, N-{4-[7-tert-Butyl-3-methyl-5-(2-oxo-1,2-dihydro-pyridin-3-yl)-quinoxalin-2-yl]-phenyl}-methanesulfonamide], 21 nM; with `COc1c(C(C)(C)C)cc(-c2ccncc2F)c2ncc(-c3ccc(NS(C)(=O)=O)cc3)cc12` [Compound I-26], 1 nM.
With `COc1c(C(C)(C)C)cc(-c2ccc[nH]c2=O)c2ncccc12` [Compound I-17] the figure was 38 nM.
With `COc1c(C(C)(C)C)cc(-c2ccc[nH]c2=O)c2ncc(-c3ccc(NS(C)(=O)=O)cc3)cc12` [Compound I-14, N-{4-[6-tert-Butyl-5-methoxy-8-(2-oxo-1,2-dihydro-pyridin-3-yl)-quinolin-3-yl]-phenyl}-methanesulfonamide] the figure was 1 nM; with `COc1c(CC(F)(F)F)cc(N2CCC(=O)NC2=O)c2ncc(-c3ccc(NS(C)(=O)=O)cc3)cc12` [Compound I-30, N-{4-[8-(Dioxo-tetrahydro-pyrimidin-1-yl)-5-methoxy-6-(2,2,2-trifluoro-ethyl)-quinolin-3-yl]-phenyl}-methanesulfonamide], 17 nM; with `COc1c(C(C)(C)C)cc(-c2cc(Cl)c[nH]c2=O)c2ncc(-c3ccc(NS(C)(=O)=O)cc3)cc12` [Compound I-15, N-{4-[6-tert-Butyl-8-(5-chloro-2-oxo-1,2-dihydro-pyridin-3-yl)-5-methoxy-quinolin-3-yl]-phenyl}-methanesulfonamide], 1 nM.
`COc1ccc(-c2cc(C(C)(C)C)cc3nc(-c4ccc(NS(C)(=O)=O)cc4F)cnc23)c(=O)[nH]1` [Compound I-11] had an IC50 of 1 nM.
In the case of `COc1c(C2(C(F)F)CC2)cc(-n2ccc(=O)[nH]c2=O)c2ncc(-c3ccc(NS(C)(=O)=O)cc3)cc12` [Compound I-39, N-{4-[6-(1-Difluoromethyl-cyclopropyl)-8-(2,4-dioxo-3,4-dihydro-2H-pyrimidin-1-yl)-5-methoxy-quinolin-3-yl]-phenyl}-methanesulfonamide], half-maximal inhibition (IC50) was put at 3.4 nM.
The value for `COc1ccc(-c2cc(C3(C#N)CC3)c(OC)c3cc(-c4ccc(NS(C)(=O)=O)cc4)cnc23)c(=O)[nH]1` [Compound I-33] was 3.8 nM.
With `COc1c(C(F)(F)F)cc(-n2ccc(=O)[nH]c2=O)c2ncc(-c3ccc(NS(C)(=O)=O)cc3)cc12` [Compound I-51, N-{4-[8-(2,4-Dioxo-3,4-dihydro-2H-pyrimidin-1-yl)-5-methoxy-6-trifluoromethyl-quinolin-3-yl]-phenyl}-methanesulfonamide] the figure was 3.8 nM; with `COc1c(C(C)(C)C)cc(-c2ccc[nH]c2=O)c2ncc(-c3ccc(N)nc3)cc12` [Compound I-43, 3-[3-(6-Amino-pyridin-3-yl)-6-tert-butyl-5-methoxy-quinolin-8-yl]-1H-pyridin-2-one], 2.6 nM.
With `COc1c(C(C)(C)C)cc(-n2ccc(=O)[nH]c2=O)c2ncc(N3CC[C@H](CNS(C)(=O)=O)C3)cc12` [Compound I-52, N-{(S)-1-[6-tert-Butyl-8-(2,4-dioxo-3,4-dihydro-2H-pyrimidin-1-yl)-5-methoxy-quinolin-3-yl]-pyrrolidin-3-ylmethyl}-methanesulfonamide] the figure was 3.5 nM.
For `COc1ccc(-c2cc(C(C)(C)C)c(OC)c3cc(N4CC[C@H](CNS(C)(=O)=O)C4)ccc23)c(=O)[nH]1` [Compound I-36, N-{(S)-1-[7-tert-Butyl-8-methoxy-5-(6-methoxy-2-oxo-1,2-dihydro-pyridin-3-yl)-naphthalen-2-yl]-pyrrolidin-3-ylmethyl}-methanesulfonamide], the IC50 amounted to 8.4 nM.
The value for `COc1c(CC(F)(F)F)cc(-n2ccc(=O)[nH]c2=O)c2ncc(-c3ccc(NS(C)(=O)=O)cc3)cc12` [Compound I-56, N-{4-[8-(2,4-Dioxo-3,4-dihydro-2H-pyrimidin-1-yl)-5-methoxy-6-(2,2,2-trifluoro-ethyl)-quinolin-3-yl]-phenyl}-methanesulfonamide] was 38.5 nM.
`COc1c(C(F)(F)F)cc(N2CCC(=O)NC2=O)c2ncc(-c3ccc(NS(C)(=O)=O)cc3)cc12` [Compound I-29, N-{4-[8-(2,4-Dioxo-tetrahydro-pyrimidin-1-yl)-5-methoxy-6-trifluoromethyl-quinolin-3-yl]-phenyl}-methanesulfonamide] yielded an IC50 of 1.8 nM. Against the preceding compound, the IC50 is about 21-fold lower.
With `COc1c(C(C)(C)C)cc(-c2ccc(C)[nH]c2=O)c2ncc(OCCCNS(C)(=O)=O)cc12` [Compound I-45, N-{3-[6-tert-Butyl-5-methoxy-8-(6-methyl-2-oxo-1,2-dihydro-pyridin-3-yl)-quinolin-3-yloxy]-propyl}-methanesulfonamide] the figure was 11.8 nM; with `COc1ccc(-c2cc(CC(F)(F)F)c(OC)c3cc(-c4ccc(NS(C)(=O)=O)cc4)cnc23)c(=O)[nH]1` [Compound I-54, N-{4-[5-Methoxy-8-(6-methoxy-2-oxo-1,2-dihydro-pyridin-3-yl)-6-(2,2,2-trifluoro-ethyl)-quinolin-3-yl]-phenyl}-methanesulfonamide], 2.2 nM.
With `COc1c(C(C)(C)C)cc(N2CCC(=O)NC2=O)c2ncc(N3CC[C@H](CNS(C)(=O)=O)C3)cc12` [Compound I-31] the figure was 1.8 nM.
`COc1[nH]c(=O)c(-c2cc(C(C)(C)C)c(OC)c3cc(-c4ccc(NS(C)(=O)=O)cc4)cnc23)cc1F` [Compound I-47, N-{4-[6-tert-Butyl-8-(5-fluoro-6-methoxy-2-oxo-1,2-dihydro-pyridin-3-yl)-5-methoxy-quinolin-3-yl]-phenyl}-methanesulfonamide] gave an IC50 of 12.8 nM.
Compound `COc1c(C(C)(C)C)cc(-c2ccc[nH]c2=O)c2ncc(N3CC(CNS(C)(=O)=O)C3)c(Cl)c12` [Compound I-22, N-{1-[6-tert-Butyl-4-chloro-5-methoxy-8-(2-oxo-1,2-dihydro-pyridin-3-yl)-quinolin-3-yl]-azetidin-3-ylmethyl}-methanesulfonamide] showed an IC50 of 44 nM.
